US20250382317A1 (EVEXTA BIO, priority 2022, published 2025)
≈ marks a conversion by molar mass, not a printed value. Where a name gives a salt, the structure may show the parent alone.

What was measured:
[1] = Solubility in HCl 0.01N (pH 1.0) and phosphate saline buffer (pH 7.4), LC-MSMS; details: thermodynamic from solid
Description: (§1) For each compound, three solutions were prepared in HCl 0.01N (pH 1.0) at 500 μM and three solutions in phosphate saline buffer (pH 7.4) at 500 μM. The solutions were prepared by dissolving each compound in the adequate solvent in opaque tubes and stirred 24 hours at room temperature. After 24 hours, for each solution, an aliquot was centrifuged 10 minutes at 3 500 rpm in order to separate the insoluble fraction from the soluble fraction. The supernatant was taken and diluted in H2O (1/20) before injection in LC-MSMS. After HPLC separation, analytes are detected and quantified by mass spectrometry. A standard curve is performed for each test substance. The solubility of each test substance was determined by calculating the concentration of each supernatant according to the standard curve.

Cathepsin B = Cathepsin B (Homo sapiens, UniProt P07858); assay: Cathepsin-B mediated drug release test; format: in vitro ADME; details: 10 units/mL activated Cathepsin B, 25 mM sodium acetate pH 5.5, 37° C., 0-120 min, LC-MS of released free drug (FIG. 1)
Description: Drug release of (Z)-3-(2-(5-bromo-1H-indol-3-yl)-2-cyanovinyl)-4-methoxybenzonitrile from Example 27 was performed using cathepsin B enzyme.
Cathepsin B (50 units/mL) was preincubated in activation buffer containing 25 mM sodium acetate (pH 5.5), 30 mM DTT and 15 mM EDTA for 15 min at 37° C. and then added as a 20% (v/v) addition to initiate each reaction.
Final in vitro cathepsin B reaction mixtures will contain 25 mM sodium acetate (pH 5.5), 10 units/mL activated Cathepsin B, 30 mM DTT and 15 mM EDTA, and 0.5 μg/mL of Example 27 in a 2.5% (v/v) incubation sample background.
Reactions will be terminated by addition of organic solvent and the supernatant analyzed by LC-MS to quantify released free drug.

physchem = details: pH 7.4, aqueous buffer, thermodynamic from solid
Description: as §1

[2] = phosphate saline buffer, pH 7.4, aqueous buffer
[3] = HCl 0.01N, pH 1, simulated gastric fluid

Row | SMILES | solubility at 24 h [1, 2] [µM] | Drug release of (Z)-3-(2-(5-bromo-1H-indol-3-yl)-2-cyanovinyl)-4-methoxybenzonitrile (Cathepsin B) | solubility at 24 h [1, 3] [µM] | solubility (physchem) [µM]
1 | COc1ccc(C#N)cc1/C=C(\C#N)c1cn(C(=O)CCCCP(=O)(O)O)c2ccc(Br)cc12 [Example 1, (Z)-5-(5-bromo-3-(1-cyano-2-(5-cyano-2-methoxyphenyl)vinyl)-1H-indol-1-yl)-5-oxopentylphosphonic acid] | 497 (≈ 270 µg/mL) | – | – | –
2 | COc1ccc(C#N)cc1/C=C(\C#N)c1cn(C(=O)OCc2ccc(NC(=O)[C@H](CCCNC(N)=O)NC(=O)[C@@H](NC(=O)[C@H](CS(=O)(=O)O)NC(=O)CCOCCOCCOCCOCCNC(=O)CCN3C(=O)CC(SC[C@H](NC(C)=O)C(=O)O)C3=O)C(C)C)cc2)c2ccc(Br)cc12 (stereo partly drawn) [Example 27, N-acetyl-S-(1-((R)-2-(((S)-1-(((S)-1-((4-(((5-bromo-3-((Z)-1-cyano-2-(5-cyano-2-methoxyphenyl)vinyl)-1H-indole-1-carbonyl)oxy)methyl)phenyl)amino)-1-oxo-5-ureidopentan-2-yl)amino)-3-methyl-1-oxobutan-2-yl)carbamoyl)-4,20-dioxo-1-sulfo-7,10,13,16-tetraoxa-3,19-diazadocosan-22-yl)-2,5-dioxopyrrolidin-3-yl)-L-cysteine] | – | efficient drug release | – | –
3 | COc1ccc(C#N)cc1/C=C(\C#N)c1cn(C(=O)CCCCP(=O)([O-])[O-])c2ccc(Br)cc12.[Na+].[Na+] [Example 14, disodium (Z)-5-(5-bromo-3-(1-cyano-2-(5-cyano-2-methoxyphenyl)vinyl)-1H-indol-1-yl)-5-oxopentylphosphonate] | 180 | – | – | –
4 | COc1ccc(C#N)cc1/C=C(\C#N)c1cn(C(=O)CCCCP(=O)([O-])O)c2ccc(Br)cc12.[Na+] [Example 6, Sodium (Z)-hydrogen5-(5-bromo-3-(1-cyano-2-(5-cyano-2-methoxyphenyl)vinyl)-1H-indol-1-yl)-5-oxopentylphosphonate] | 206 | – | 34 | –
5 | COc1ccc(C#N)cc1/C=C(\C#N)c1cn(C(=O)CCP(=O)(O)O)c2ccc(Br)cc12 [Example 2, (Z)-3-(5-bromo-3-(1-cyano-2-(5-cyano-2-methoxyphenyl)vinyl)-1H-indol-1-yl)-3-oxopropylphosphonic acid] | 12 (≈ 6.17 µg/mL) | – | – | –
6 | COc1ccc(C#N)cc1/C=C(\C#N)c1cn(C(=O)CCCCCCP(=O)([O-])O)c2ccc(Br)cc12.[Na+] [Example 10, sodium (Z)-hydrogen7-(5-bromo-3-(1-cyano-2-(5-cyano-2-methoxyphenyl)vinyl)-1H-indol-1-yl)-7-oxoheptylphosphonate] | 141 | – | 93 | –
7 | COc1ccc2c(/C(C#N)=C/c3cc(C#N)ccc3OC)cn(C(=O)CCCCP(=O)(O)O)c2c1 [Example 4, (Z)-5-(3-(1-cyano-2-(5-cyano-2-methoxyphenyl)vinyl)-6-methoxy-1H-indol-1-yl)-5-oxopentylphosphonic acid] | 33 (≈ 16.3 µg/mL) | – | – | –
8 | COc1ccc(C#N)cc1/C=C(\C#N)c1cn(C(=O)OCc2ccc(NC(=O)[C@H](CCCNC(N)=O)NC(=O)[C@@H](N)C(C)C)cc2)c2ccc(Br)cc12 [Example 21, hydrochloride] | – | – | – | 471
9 | COc1ccc(C#N)cc1/C=C(\C#N)c1cn(C(=O)OCc2ccc(NC(=O)[C@H](CCCNC(N)=O)NC(=O)[C@@H](NC(=O)C(CS(=O)(=O)O)NC(=O)OC(C)(C)C)C(C)C)cc2)c2ccc(Br)cc12 (some centres unmarked) [Example 24] | – | – | – | 201 (≈ 208 µg/mL)
10 | COc1ccc(C#N)cc1/C=C(\C#N)c1cn(C(=O)CCCP(=O)(O)O)c2ccc(Br)cc12 [Example 16, (S)-2,6-diaminohexanoic acid compound with (Z)-4-(5-bromo-3-(1-cyano-2-(5-cyano-2-methoxyphenyl)vinyl)-1H-indol-1-yl)-4-oxobutylphosphonic acid (2:1)] | 35 (≈ 18.5 µg/mL) | – | < 10 | –
11 | COc1ccc(C#N)cc1/C=C(\C#N)c1cn(C(=O)OCc2ccc(NC(=O)[C@H](CCCNC(N)=O)NC(=O)[C@@H](NC(=O)CCOCCOCCOCCOCCNC(=O)CCN3C(=O)C=CC3=O)C(C)C)cc2)c2ccc(Br)cc12 [Example 22, [4-[[(2S)-2-[[(2S)-2-[3-[2-[3-(2,5-dioxopyrrol-1-yl)propanoylamino]ethoxy](peg4)propanoylamino]-3-methyl-butanoyl]amino]-5-ureido-pentanoyl]amino]phenyl]methyl 5-bromo-3-[(Z)-1-cyano-2-(5-cyano-2-methoxy-phenyl)vinyl]indole-1-carboxylate] | – | – | – | 2 (≈ 2.36 µg/mL)
12 | COc1ccc(C#N)cc1/C=C(\C#N)c1cn(C(=O)CCCP(=O)([O-])[O-])c2ccc(Br)cc12.[Na+].[Na+] [Example 13, disodium (Z)-4-(5-bromo-3-(1-cyano-2-(5-cyano-2-methoxyphenyl)vinyl)-1H-indol-1-yl)-4-oxobutylphosphonate] | 45 | – | 19 | –
13 | COc1ccc(C#N)cc1/C=C(\C#N)c1cn(C(=O)CCCCCCP(=O)(O)O)c2ccc(Br)cc12 [Example 3, (Z)-7-(5-bromo-3-(1-cyano-2-(5-cyano-2-methoxyphenyl)vinyl)-1H-indol-1-yl)-7-oxoheptylphosphonic acid] | 294 (≈ 168 µg/mL) | – | – | –
14 | COc1ccc2c(/C(C#N)=C/c3cc(C#N)ccc3OC)cn(C(=O)CCCCP(=O)([O-])O)c2c1.[Na+] [Example 11, sodium (Z)-hydrogen5-(3-(1-cyano-2-(5-cyano-2-methoxyphenyl)vinyl)-6-methoxy-1H-indol-1-yl)-5-oxopentylphosphonate] | 476 | – | 10 | –
15 | COc1ccc(C#N)cc1/C=C(\C#N)c1cn(C(=O)CCCP(=O)([O-])O)c2ccc(Br)cc12.[Na+] [Example 8, sodium (Z)-hydrogen4-(5-bromo-3-(1-cyano-2-(5-cyano-2-methoxyphenyl)vinyl)-1H-indol-1-yl)-4 oxobutylphosphonate] | 71 | – | < 5 | –
16 | COc1ccc(C#N)cc1/C=C(\C#N)c1cn(C(=O)OCc2ccc(NC(=O)[C@H](CCCNC(N)=O)NC(=O)[C@@H](NC(=O)[C@H](CS(=O)(=O)O)NC(=O)CCOCCOCCOCCOCCNC(=O)CCN3C(=O)C=CC3=O)C(C)C)cc2)c2ccc(Br)cc12 [Example 26] | – | – | – | 175 (≈ 233 µg/mL)
17 | COc1ccc(C#N)cc1/C=C(\C#N)c1cn(C(=O)CCP(=O)([O-])O)c2ccc(Br)cc12.[Na+] [Example 7, sodium (Z)-hydrogen3-(5-bromo-3-(1-cyano-2-(5-cyano-2-methoxyphenyl)vinyl)-1H-indol-1-yl)-3-oxopropylphosphonate] | 103 | – | < 5 | –
18 | COc1ccc2c(/C(C#N)=C/c3cc(C#N)ccc3OC)cn(C(=O)CCCCCCP(=O)([O-])O)c2c1.[Na+] [Example 12, sodium (Z)-hydrogen7-(3-(1-cyano-2-(5-cyano-2-methoxyphenyl)vinyl)-6-methoxy-1H-indol-1-yl)-7-oxoheptylphosphonate] | 465 | – | 109 | –
19 | COc1ccc(C#N)cc1/C=C(\C#N)c1c[nH]c2ccc(Br)cc12 [Example 38 of WO 2014/086964, (Z)-3-(2-(5-bromo-1H-indol-3-yl)-2-cyanovinyl)-4-methoxybenzonitrile, reference compound] | < 5 | – | < 5 | –
20 | COc1ccc(C#N)cc1/C=C(\C#N)c1cn(C(=O)OCc2ccc(O[C@@H]3O[C@H](C(=O)O)[C@@H](O)[C@H](O)[C@H]3O)cc2)c2ccc(Br)cc12 [Example 19, (2S,3S,4S,5R,6S)-6-[4-[[5-bromo-3-[(Z)-1-cyano-2-(5-cyano-2-methoxy-phenyl)vinyl]indole-1-carbonyl]oxymethyl]phenoxy]-3,4,5-trihydroxy-tetrahydropyran-2-carboxylic acid] | 452 (≈ 318 µg/mL) | – | – | –
